Structures are written as SMILES. Like-named read-outs stand apart in the source and are kept apart here.

In test [1] the target is T1, human GHSR1a (Homo sapiens, UniProt Q92847).
T1 construct: expressed in transfected cells; host or cells: HEK293 Tetracycline-Inducible cell line, used as membranes
Put plainly: Human Ghrelin SPA Binding Assay. The text has this:
The SPA format was utilized for high throughput screening of test compounds and filter binding served for more comprehensive binding characterization.
Human Ghrelin SPA Binding Assay

Test [2] deals with T1, human GHSR1a. Kind of test: Human Ghrelin Functional Assay (DELFIA GTP-binding assay). The format is biochemical. The following applies: GTP-Europium exchange, human GHSR1a membranes, with and without ghrelin at EC80. On the procedure: Human Ghrelin Functional Assay
To measure the ability of test compounds in the present invention to modulate the activity of human GHSR1a (agonize, antagonize, partially agonize, inversely agonize), a DELFIA GTP-binding assay (Perkin Elmer, AD0260 and AD0261) is performed. The assay monitors the ligand-dependent exchange of GDP for GTP. GPCR activation results in an increase in fluorescence as receptor-bound GDP is replaced by Europium-labeled GTP.
Ghrelin functional assays are performed in a final volume of 39.5 μl containing 720 ng human GHSR1a (HEK293 Tetracycline-Inducible cell line expressing the human growth secretagogue receptor la, prepared as membranes), 9 nM GTP-Europium and varying concentrations of test compound or vehicle. To test for receptor antagonism, membranes are incubated in the presence of agonist ghrelin (Anaspec, 24158) at the EC80 concentration, plus test compound or vehicle.
Briefly, test compounds are prepared at room temperature in 384-well plates (Matrix, 4340). […] Samples are then transferred as 6 μl to 384-well filter plates (Pall, 5071) containing 30 μl of 24 μg/ml hGHSR1a membrane and 0.35 mg/ml saponin (Perkin Elmer, AD0261) in basal buffer.
The mixture is incubated 24 minutes at room temperature with gentle shaking, followed by the addition of 3.5 μl of 100 nM GTP-Europium in 50 mM HEPES, pH 7.4. Samples are shielded from light and incubated for 90 minutes further at room temperature with gentle shaking. The reactions are suctioned dry with vacuum, washed three times with 75 μl ice cold 1× GTP Wash Solution (Perkin Elmer, AD0261), and immediately read on the Envision 2101 Multilabel Reader (Perkin Elmer) using excitation filter 320 nm and emission filter 615 nm.

The mark [3] stands for this setting: SPA format, [125I] ghrelin displacement, human GHSR1a membranes, Ki=IC50/(1+[ligand]/Kd).

T1 sequence (Q92847 whole entry): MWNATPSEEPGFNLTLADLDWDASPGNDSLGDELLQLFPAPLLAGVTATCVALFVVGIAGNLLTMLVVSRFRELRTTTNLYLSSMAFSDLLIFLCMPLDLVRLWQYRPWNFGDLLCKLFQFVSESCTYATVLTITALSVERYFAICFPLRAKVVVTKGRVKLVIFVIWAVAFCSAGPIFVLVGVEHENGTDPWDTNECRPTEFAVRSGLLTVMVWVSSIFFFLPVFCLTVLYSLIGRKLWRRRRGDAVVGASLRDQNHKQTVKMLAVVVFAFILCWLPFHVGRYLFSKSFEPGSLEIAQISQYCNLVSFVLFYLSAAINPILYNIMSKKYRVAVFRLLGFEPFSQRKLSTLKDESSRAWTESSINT

The term IC50 denotes the concentration that inhibits the measured activity by half. What is called Ki is the dissociation constant of the complex between target and ligand, obtained from inhibition or displacement. For `Cc1ccc(CC(=O)N2CCC3(CC2)CN([C@@H]2CCc4cc(-c5ncccn5)ccc42)C3)nc1` [Example 3I], on human GHSR1a [1], the IC50 stood at 31 nM. At human GHSR1a [1] (setting [3]), the Ki came to 27.8 nM. On human GHSR1a [2], the functional comment entry is recorded as “inverse agonist”.

At human GHSR1a [1], `Cc1cc(-c2ccc3c(c2)CC[C@H]3N2CC3(CCN(C(=O)Cc4cn5nc(C)sc5n4)CC3)C2)nc(C)n1` [Example 3AO] displayed an IC50 of 16.8 nM and a Ki of 15.1 nM. For the same compound, the functional comment result at human GHSR1a [2] is “inverse agonist”.

As for `COc1ccc(CC(=O)N2CCC3(CC2)CN([C@@H]2CCc4cc(-c5nccc(C)n5)ccc42)C3)nc1` [Example 3S], on human GHSR1a [1], the IC50 came to 17.8 nM and the inhibition constant Ki was found to be 15.3 nM. In addition, the functional comment entry on human GHSR1a [2] is reported as “inverse agonist”.

At human GHSR1a [1], `COc1ccc(CC(=O)N2CCC3(CC2)CN(C2CCc4cc(-c5cc(OC)ncn5)ccc42)C3)nc1` (racemic) [Example 2F] had an IC50 of 35.9 nM and an inhibition constant (Ki) of 50.2 nM. Also, the functional comment result on human GHSR1a [2] was “inverse agonist”.

As to `CCc1cc(-c2ccc3c(c2)CC[C@H]3N2CC3(CCN(C(=O)Cc4ccc(OC)cn4)CC3)C2)ncn1` [Example 3AA], at human GHSR1a [1], the IC50 is 9.8 nM and the Ki is 8.59 nM. For the same compound, at human GHSR1a [2], the functional comment result is given as “inverse agonist”.

For the compound `COc1ccc(CC(=O)N2CCC3(CC2)CN(C2CCc4cc(-c5cc(C#N)ccn5)ccc42)C3)nc1` (racemic) [Example 2C], at human GHSR1a [1], the IC50 was found to be 13.7 nM and the Ki was determined as 38 nM. The functional comment result on human GHSR1a [2] is “inverse agonist”.

At human GHSR1a [1], `NC(=O)c1ccc(-c2ccc3c(c2)CC[C@H]3N2CC3(CCN(C(=O)Cc4ccc(C5CC5)cn4)CC3)C2)cn1` [Example 10E] had an IC50 of 9.98 nM and a Ki of 8.86 nM. At human GHSR1a [2], the functional comment result is “inverse agonist”.

On human GHSR1a [1], `CCc1ccc(CC(=O)N2CCC3(CC2)CN([C@@H]2CCc4cc(-c5ncccn5)ccc42)C3)nc1` [Example 5B] gave an IC50 of 11.5 nM and a Ki of 10.4 nM. Further, the functional comment result at human GHSR1a [2] is listed as “inverse agonist”.

Take `Cc1nccc(-c2ccc3c(c2)CC[C@H]3N2CC3(CCN(C(=O)Cc4ccc5c(n4)OCCO5)CC3)C2)n1` [Example 3E, 6-(2-{2-[(1R)-5-(2-methylpyrimidin-4-yl)-2,3-dihydro-1H-inden-1-yl]-2,7-diazaspiro[3.5]non-7-yl}-2-oxoethyl)-2,3-dihydro[1,4]dioxino[2,3-b]pyridine]: at human GHSR1a [1], the 50% inhibitory concentration (IC50) worked out at 20.7 nM and the affinity corresponds to a Ki of 18.5 nM. At human GHSR1a [2], the functional comment entry is “inverse agonist”.

At human GHSR1a [1], `COc1ccc(CC(=O)N2CCC3(CC2)CN([C@@H]2CCc4cc(-n5nccn5)ccc42)C3)cc1` [Example 6E] registered an IC50 of 3.77 nM and a Ki of 3.09 nM. Also, the functional comment result at human GHSR1a [2] is “inverse agonist”.

For the compound `Cc1nn2cc(CC(=O)N3CCC4(CC3)CN([C@@H]3CCc5cc(-c6ccc(C(N)=O)nc6)ccc53)C4)nc2s1` [Example 10F], on human GHSR1a [1], the IC50 is 15.8 nM and the Ki turned out to be 14.2 nM. In addition, the functional comment entry on human GHSR1a [2] is “inverse agonist”.

With `CCc1cnc(-c2ccc3c(c2)CC[C@H]3N2CC3(CCN(C(=O)Cc4ccc(OC)cc4)CC3)C2)nc1` [Example 3W], on human GHSR1a [1], the IC50 is 17.2 nM and the Ki was found to be 14.8 nM. Also, the functional comment entry at human GHSR1a [2] is “inverse agonist”.

On to `Cc1cnc(-c2ccc3c(c2)CC[C@H]3N2CC3(CCN(C(=O)Cc4cn5nc(C)sc5n4)CC3)C2)nc1` [Example 3AN], for which, on human GHSR1a [1], the IC50 was found to be 16.6 nM and the Ki is 14.9 nM. Besides, at human GHSR1a [2], the functional comment result is given as “inverse agonist”.

With `Cc1ccn2cc(CC(=O)N3CCC4(CC3)CN([C@@H]3CCc5cc(-n6nccn6)ccc53)C4)nc2c1` [Example 6C], at human GHSR1a [1], the IC50 was found to be 37.2 nM and the affinity corresponds to a Ki of 32.4 nM. For the same compound, the functional comment result at human GHSR1a [2] is “inverse agonist”.

On to `Cc1cn2cc(CC(=O)N3CCC4(CC3)CN([C@@H]3CCc5cc(-n6nccn6)ccc53)C4)nc2s1` [Example 6F], for which, on human GHSR1a [1], the IC50 turned out to be 6.08 nM and the Ki is 5.18 nM. Besides, at human GHSR1a [2], the functional comment entry was “inverse agonist”.

At human GHSR1a [1], `Cc1ccn2cc(CC(=O)N3CCC4(CC3)CN([C@@H]3CCc5cc(-c6ccc(C(N)=O)nc6)ccc53)C4)nc2c1` [Example 9F] returned an IC50 of 22.8 nM and a Ki of 20.2 nM. The functional comment result at human GHSR1a [2] is recorded as “inverse agonist”.

Regarding `COc1ccc(CC(=O)N2CCC3(CC2)CN(C2CCc4cc(-c5ccc(OC)cn5)ccc42)C3)nc1` (centres unmarked) [Example 2A, 7-[(5-Methoxypyridin-2-yl)acetyl]-2-[5-(5-methoxypyridin-2-yl)-2,3-dihydro-1H-inden-1-yl]-2,7-diazaspiro[3.5]nonane], on human GHSR1a [1], the IC50 is 22.7 nM and the Ki was determined as 91.3 nM. For the same compound, the functional comment entry on human GHSR1a [2] is “inverse agonist”.

`Cc1ccnc(-c2ccc3c(c2)CC[C@H]3N2CC3(CCN(C(=O)Cc4ccc5c(n4)OCCO5)CC3)C2)n1` [Example 3U]: on human GHSR1a [1], the IC50 worked out at 8.08 nM and the inhibition constant Ki came out at 6.9 nM. Also, on human GHSR1a [2], the functional comment result is reported as “inverse agonist”.

Consider `COc1ccc(CC(=O)N2CCC3(CC2)CN([C@@H]2CCc4cc(-c5cc(C)nc(C)n5)ccc42)C3)nc1` [Example 5G], for which, on human GHSR1a [1], the half-maximal inhibitory concentration (IC50) stood at 39.9 nM and the inhibition constant (Ki) came to 33 nM. Also, the functional comment entry on human GHSR1a [2] was “inverse agonist”.

Regarding `COc1ccc(CC(=O)N2CCC3(CC2)CN([C@@H]2CCc4cc(-c5ncccn5)ccc42)C3)nc1` [Example 3G], the IC50 on human GHSR1a [1] was 21.2 nM. In addition, at human GHSR1a [2], the functional comment result is recorded as “inverse agonist”.

As to `COc1ccc(CC(=O)N2CCC3(CC2)CN(C2CCc4cc(-c5cnccn5)ccc42)C3)nc1` (racemic) [Example 2H], at human GHSR1a [1], the IC50 came out at 92.2 nM and the affinity, expressed as Ki, was 218 nM. Besides, the functional comment result at human GHSR1a [2] was “inverse agonist”.

Consider `COc1ccc(CC(=O)N2CCC3(CC2)CN([C@@H]2CCc4cc(-n5nccn5)ccc42)C3)c(NC(C)=O)c1` [Example 6H], for which, at human GHSR1a [1], the IC50 worked out at 21.7 nM and the Ki was 19.4 nM. Besides, on human GHSR1a [2], the functional comment entry is given as “inverse agonist”.

At human GHSR1a [1], `Cc1ccn2cc(CC(=O)N3CCC4(CC3)CN([C@@H]3CCc5cc(-c6ncccn6)ccc53)C4)nc2c1` [Example 3X] gave an IC50 of 36.6 nM and a Ki of 31.6 nM. In addition, the functional comment result on human GHSR1a [2] is “inverse agonist”.

For the compound `Cc1ccc(CC(=O)N2CCC3(CC2)CN([C@@H]2CCc4cc(-n5nccn5)ccc42)C3)nc1` [Example 5C], the Ki at human GHSR1a [1] (setting [3]) came to 10.5 nM. The functional comment result on human GHSR1a [2] is recorded as “inverse agonist”.

With `COc1ccc(CC(=O)N2CCC3(CC2)CN(C2CCc4cc(-c5cccc(C)n5)ccc42)C3)nc1` (racemic) [Example 2J], the IC50 on human GHSR1a [1] came out at 22 nM. Further, the functional comment result on human GHSR1a [2] is “inverse agonist”.

On human GHSR1a [1], `Cc1ccn2cc(CC(=O)N3CCC4(CC3)CN([C@@H]3CCc5cc(-c6cc(C(N)=O)ncn6)ccc53)C4)nc2c1` [Example 10G] came in with an IC50 of 60.1 nM and a Ki of 53.8 nM. Further, on human GHSR1a [2], the functional comment entry is “inverse agonist”.

At human GHSR1a [1], `COc1ccc(CC(=O)N2CCC3(CC2)CN([C@@H]2CCc4cc(-c5ccc(C#N)nc5)ccc42)C3)nc1` [Example 4B, 5-[(1R)-1-{7-[(5-methoxypyridin-2-yl)acetyl]-2,7-diazaspiro[3.5]non-2-yl}-2,3-dihydro-1H-inden-5-yl]pyridine-2-carbonitrile] had an IC50 of 70.5 nM and a Ki of 60.7 nM.

The record behind these values is patent US8609680B2, “2,3-dihydro-1H-inden-1-yl-2,7-diazaspiro[3.5] nonane derivatives” (Pfizer Inc., priority 2010, dated 2013).
